For one series, the system named is P. falciparum strain 3D7. The series is described as follows: Antiplasmodial activity in vitro, Hoechst-33258 fluorometric assay or parasite lactate dehydrogenase test. The format is cell-based. The conditions noted are these: Plasmodium falciparum. How it is done: (§1) Recombinant falcipain-2 and falcipain-3 were produced as previously described. Inhibitory activities against recombinant falcipain-2 and falcipain-3 were evaluated in fluorometric microplate assays using the substrates Cbz-Phe-Arg-AMC and Cbz-Leu-Arg-AMC (AMC, 7-amino-4-methyl-coumarin). The cysteine protease inhibitor E-64 was used as a positive control. The solvent DMSO was used as negative control. […] The in vitro data for the etacrynic acid derivatives are compared to those of the well known drug chloroquine and to E-64.
(§2) IC50 values for inhibition of falcipain-2 and falcipain-3 were determined as described previously using the fluorogenic substrates Cbz-Phe-Arg-AMC and Cbz-Leu-Arg-AMC, respectively (AMC, 7-amino-4 methylcoumarin). As a positive control the well-known cysteine protease inhibitor E-64 [7, 25, 26] and as a negative control the solvent (DMSO) was used. Dose-dependent effects of compounds on parasite development (P. falciparum strain W2) were quantified by flow cytometry according to a previously published method. First, a screening with inhibitor concentrations of […] was performed and the percentage activity of infected red blood cells (RBCs) relative to the negative control was determined. […] Chloroquine and E-64 were used as positive controls, and the solvent DMSO was used as a negative control. For selected compounds assays with the P. falciparum strain 3D7 were performed using a fluorometric assay with Hoechst-33258 [28], or the microculture tetrazolium test measuring parasite lactate dehydrogenase activity. The parasites were cultivated in vitro as described previously. Compounds were screened at concentrations between 1 nM and 100 μM. Synchronized ring stages were plated in 96-well plates at a parasitemia of 1%, in the presence of the compounds (dissolved in DMSO). Incubation of parasites with DMSO alone at a concentration of 0.5% v/v was used as a negative control. IC50 values were calculated by non-linear regression analyses using the programs GaphPad® Prism 4 and GraFit® [31, 32].

The test system of series [1] is P. falciparum strain W2. The conditions noted are these: read-out: P. f. 3D7/W2, IC50; cited from earlier work.
Another series deals with T1, falcipain-2 (Plasmodium falciparum, UniProt Q8I6U4).
T1 construct: made in house; host or cells: E. coli
T1 sequence (Q8I6U4 244-484): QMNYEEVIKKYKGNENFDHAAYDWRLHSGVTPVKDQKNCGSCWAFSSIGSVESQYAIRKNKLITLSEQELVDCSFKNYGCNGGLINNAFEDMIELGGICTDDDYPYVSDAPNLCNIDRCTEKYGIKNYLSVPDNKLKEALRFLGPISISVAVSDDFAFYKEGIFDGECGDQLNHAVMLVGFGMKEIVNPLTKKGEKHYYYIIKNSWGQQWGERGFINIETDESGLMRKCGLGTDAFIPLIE
The series is described as follows: Inhibition of recombinant falcipain-2, fluorometric microplate assay (Cbz-Phe-Arg-AMC). The conditions noted are these: recombinant falcipain-2, values marked ^a: only one experiment, ni = no inhibition. Format: biochemical. As to the method: as §1
(§3) Falcipain-2 and falcipain-3 were recombinantly expressed in E. coli and refolded to active enzyme as previously described.
as §2

In series [2] the test system is P. falciparum strain W2. The series is described as follows: Antiplasmodial activity in vitro, parasite development quantified by flow cytometry. Format: cell-based, Plasmodium falciparum. The conditions noted are these: Plasmodium falciparum, 3D7 / W2; W2 strain (CQ-resistant); ni = no inhibition; read-out: P. f. 3D7/W2, IC50. As to the method:
as §2
In general terms: Flow cytometry measures light scatter and fluorescence of single cells or particles in a stream.

A further series concerns the target T2, falcipain-3 (Plasmodium falciparum, UniProt Q8IIL0).
T2 construct: made in house; host or cells: E. coli
T2 sequence (Q8IIL0 243-492): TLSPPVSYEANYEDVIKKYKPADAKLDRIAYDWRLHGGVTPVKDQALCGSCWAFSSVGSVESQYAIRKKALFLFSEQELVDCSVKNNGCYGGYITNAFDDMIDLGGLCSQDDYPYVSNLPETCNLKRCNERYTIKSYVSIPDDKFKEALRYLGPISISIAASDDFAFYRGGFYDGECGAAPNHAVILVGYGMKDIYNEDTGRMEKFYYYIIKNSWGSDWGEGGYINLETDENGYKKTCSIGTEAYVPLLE
As to the kind of experiment: Inhibition of recombinant falcipain-3, fluorometric microplate assay (Cbz-Leu-Arg-AMC). The conditions noted are these: recombinant falcipain-3; ni = no inhibition; read-out: FP-3 IC50. Format: biochemical. As to the method:
as §1, §3, §2

Series [3] can be described thus: In vitro cytotoxicity assay. The format is cell-based. The conditions noted are these: human, 293T human kidney epithelium cells; 293T cells. As to the method: Recombinant falcipain-2 and falcipain-3 were produced as previously described. […] The cysteine protease inhibitor E-64 was used as a positive control. The solvent DMSO was used as negative control. […] For the experimental procedures, cells were detached from the flasks with a rubber policeman, washed twice with PBS (phosphate-buffer saline) containing 1 mL trypsin-EDTA (1 x), and suspended at 2 x 10^6 cells mL^-1 in complete medium. Inhibitor assays were carried out as described elsewhere except that the cell concentration used in this study was 2 x 10^4 mL^-1 well^-1 [33].

Read-outs that look alike come from different tables or passages of the source.

One may read the melting point as the temperature of the solid-liquid transition.

As to `CCN(CC)CCCC(C)Nc1ccnc2cc(Cl)ccc12` (stereo not drawn) [CQ, chloroquine, reference compound], the IC50 with P. falciparum strain 3D7 (3D7, read-out: P. f. 3D7/W2, IC50) is 0.01 ± 0.0048 µM; in the series on P. falciparum strain W2 [1], 0.24 µM.
As for `C=C(CC)C(=O)c1ccc(OCC(=O)NCCCC)c(F)c1` [Compound 6, N-butyl-2-(2-fluoro-4-(2-methylenebutanoyl)phenoxy)acetamide], the melting point worked out at 73 °C. Moreover, the IC50 in the series on P. falciparum strain 3D7 (3D7 strain (CQ-sensitive), read-out: P. f. 3D7/W2, IC50) is 141 ± 4 µM. Further, the “FP-2 IC50” value at falcipain-2 is on record as “ni”.
For `C=C(CC)C(=O)c1ccc(OCC(=O)NCCCCCC(=O)O)c(Cl)c1Cl` [Compound 23, 6-{2-[2,3-Dichloro-4-(2-methylene-butyryl)-phenoxy]acetylamino}-hexanoic acid], the IC50 was 18.8 ± 0.9 µM in the series with P. falciparum strain W2 [2], 57.1 ± 13 µM on falcipain-2 (read-out: FP-2 IC50), 96.5 ± 0.6 µM at falcipain-3 and more than 160 µM in series [3].

Values taken from publication PMC6253875, “Synthesis and Evaluation of Non-peptidic Cysteine Protease Inhibitors of P. falciparum Derived from Etacrynic Acid” (Molecules, 2008).
